# Patent US20190116795A1, “USE OF TENVERMECTIN IN CONTROL OF HARMFUL INSECTS IN AGRICULTURAL AND FOREST CROPS” (ZHEJIANG HISUN PHARMACEUTICAL CO., LTD., priority 2016, published 2019)
# Where two headings read alike, the source gives them in different places.
# Columns and labels:
# [1] = test system: Laodelphax striatellus imagoes; assay: whole plant or invertebrate; settings: for Relative toxicity: maximum LC50 divided by LC50 of each agent, imidacloprid = 1
# Method: Each original medicine was dissolved in DMF and formulated into a 10000 mg/L solution for later use.
# Test insect source: The Laodelphax striatellus imagoes were collected in the rice fields of Jiaxing, Zhejiang, and were raised indoors with rice seedlings.
# The soaking seedling method was used in this test. The test agents were diluted with tap water into five series of concentrations on the basis of pre-test to be used as test solutions. Specifically, lambda-cyhalothrin and imidacloprid were diluted to 5 mg/L, 10 mg/L, 25 mg/L, 50 mg/L and 100 mg/L; abamectin was diluted to 0.25 mg/L, 0.5 Mg/L, 1.0 mg/L, 2.5 mg/L and 5.0 mg/L; tenvermectin A was diluted to 0.05 mg/L, 0.10 mg/L, 0.25 mg/L, 0.5 mg/L and 1.0 mg/L. Rice seedlings that are sown indoors for about 25 days and have no rice planthopper eggs were taken, a few rice roots were left, the seedlings were soaked in pre-formed solution for 30 seconds then they were taken out and dried, and were put into a 3 cm×20 cm test tube. There was a little water at the bottom of the tube. 2-3 rice seedlings per tube, three repetitions per treatment, and the one treated with water was used as a control. Each tube receives 40-50 heads of Laodelphax striatellus, and the tubes were sealed with black cloth and were placed in a worm room under a temperature of (26±1) ° C. After 72 hours of treatment, the number of dead insects was checked. […] Experimental data statistics and analysis were performed using spss 19 software.
# The relative toxicity index of the agent having the largest LC50 was set to be 1, and the relative toxicity index of each agent was determined by dividing the maximum LC50 by the LC50 value of each agent.
# [2] = test system: Nilaparvata lugens imagoes; assay: Indoor toxicity against Nilaparvata lugens imagoes, soaking seedling method; type: in vivo; settings: for LC50: Nilaparvata lugens imagoes, soaked rice seedlings, 72 hours, 26±1 °C; for Relative toxicity: maximum LC50 divided by LC50 of each agent, imidacloprid = 1
# Description: Test insect source: the Nilaparvata lugens imagoes were collected from the rice field in Jiaxing, Zhejiang and were raised indoors with rice seedlings.
# The soaking seedling method was used in this test.
# [3] = test system: Frankliniella occidentalis Pergande imagoes; assay: Indoor toxicity against Frankliniella occidentalis Pergande imagoes, impregnation method; type: in vivo; settings: for LC50: Frankliniella occidentalis Pergande imagoes, impregnation, 48 hours after medication, 26 °C; for Relative toxicity: maximum LC50 divided by LC50 of each agent, imidacloprid = 1
# Description: The impregnation method was used. […] The quantitative Frankliniella occidentalis Pergande (15-20 heads) in the suction trap were flicked into the solution in the insect box, and the solution was gently stirred with a glass rod for 10 seconds, and the insect box was quickly removed from the solution, and when the solution was drained out from the insect box, the residual solution on the copper net was blotted with absorbent paper from the bottom of the insect box, and then a 3 cm long kidney bean slice (Frankliniella occidentalis Pergande feed) was put into the insect box, and finally the insect box was sealed with a parafilm. […] The sealed insect box was placed in a HPG280H light incubator under a temperature of 26° C. and a humidity of 70%.
# Bemisia tabaci imagoes = assay: Indoor toxicity against Bemisia tabaci imagoes, liquid membrane impregnation method of blades; type: in vivo; settings: for Relative toxicity: maximum LC50 divided by LC50 of each agent, acetamiprid = 1
# Method: The liquid membrane impregnation method of blades was used. […] One tomato leaf was placed in each culture dish. Three repetitions per treatment, a leaf was soaked with water, dried, and then was placed in a culture dish to be used as a control. The Bemisia tabaci imagoes were gently patted into the culture dish, about 30 to 40 imagoes in each dish. The dishes were sealed with plastic wrap, several small holes were made on the plastic wrap to facilitate ventilation. After 24 hours, the death of Bemisia tabaci imagoes was checked under a binocular microscope (the anatomical needle was used to gently touch the Bemisia tabaci imagoes, and the motionless ones were regarded to be dead). Experimental data statistics and analysis were performed with spss 19 software.
# [4] = test system: Coptotermes formosanus Shiraki; assay: Indoor toxicity against Coptotermes formosanus Shiraki, topical drop with microinjector; type: in vivo; settings: for Relative toxicity: maximum LC50 divided by LC50 of each agent, abamectin = 1
# Method: Specifically, abamectin was diluted to 0.01 mg/L, 0.025 mg/L, 0.05 mg/L, 0.10 mg/L and 0.25 mg/L; tenvermectin A and tenvermectin B were diluted to 0.001 mg/L, 0.0025 mg/L, 0.005 mg/L, 0.01 mg/L and 0.025 mg/L. The termites to be tested were placed in culture dishes with a diameter of 15 cm, and 20 worker ants were placed in each dish. During the test, a microinjector was used to drop 1 μI of the solution to the thorax and abdome of each termite for a total of 3 repetitions. One fungus comb was placed in each dish for termites to inhabit and a wet absorbent cotton ball was placed to moisturize. After completing dropping the solution, the culture dish was placed in a chamber under a constant temperature of 18±1° C. and a constant humidity and was cultivated in dark conditions, the death conditions were observed 24 hours and 48 hours after dropping the solution respectively. A writing brush was used to touch the various parts of the bodies of the termites and the termites that are completely immobile were judged to be dead.
# zebrafish = assay: Toxicity test on zebrafish, semi-static method; type: in vivo, Brachydanio rerio
# Method: Test fish and water: zebrafish (Brachydanio rerio) were purchased from Zhejiang Academy of Agricultural Sciences and were of uniform size with an average body length of 2-3 cm and an average body weight of 0.3 g. They were domesticated for 7 days indoors before the test. The natural mortality rate was zero. Feeding was stopped 1 day before the test and the fish were not fed during the test. The test water was tap water after removing residual chlorine by exposure to the sun for more than 24 hours, and the pH was 6.8.
# The sample was formulated into 50 mg/ml mother liquor with DMF.
# Method: Semi-static method. Three level differences were set for each sample:
# 0.5 ppm, 1.0 ppm and 2.0 ppm, and three sets of parallels were set for each level difference, 10 zebrafish were raised for each group, and blank controls (one group without agents and one group with only solvent) were set. The corresponding volume of mother liquor was taken according to the concentration as required for each sample, and the volume of each sample was adjusted to 150 μl with DMF, and then each sample was added to the test group (containing 1.6 L of water). The room temperature was controlled at 22±2° C. for 96 hours, and the water was changed every 24 hours and the samples were re-added. The fish mortality rate was recorded for the first 8 hours and at 24, 48, 72, and 96 hours, and the dead fish were removed in time. Finally, the agents were divided into three grades according to the values of LC50: low-toxic pesticides with a LC50>10 ppm, middle-toxic pesticides with a LC50 of 1.0-10 ppm, and high-toxic pesticides with a LC50<1.0 ppm.
# cabbage Phyllotreta = assay: Field efficacy test against cabbage Phyllotreta; type: in vivo; settings: 1 day, 3 days and 7 days after medication
# Method: In the laboratory, the above-mentioned original medicines were respectively formulated into the following formulations for later use: 1.8% abamectin emulsifiable concentrate, 1.8% tenvermectin A emulsifiable concentrate, 1.8% tenvermectin B emulsifiable concentrate, 5% imidacloprid emulsifiable concentrate, 5% acetamiprid emulsifiable concentrate, 2.5% lambda-cyhalothrin emulsifiable concentrate.
# The test was conducted in Linhai City, and the test crop was cabbage, and the object to be controlled was Phyllotreta.
# The experiment consisted of 7 treatments, 3 replicates per treatment, 21 sections in total. The sections were randomly arranged, the area for each section was 66.7 m^2. A type of knapsack manual sprayer was used to spray once, the amount of each section was calculated according to the amount of 50 ml/mu, and the leaves were sprayed evenly. Each treatment was isolated from each other to avoid mutual interference. A blank control was set, and the blank control was sprayed with water. The population base of insects was investigated before medication, and the number of live insects was investigated 1 day, 3 days, and 7 days after medication, and a total of 4 investigations were conducted. 20 plants were randomly investigated per section. The rate of reduction of population was calculated and the control effect was corrected. No other pesticides were used during the test. […]
# [5] = Laodelphax striatellus, in Oryza sativa, 72 h
# [6] = Bemisia tabaci imagoes, soaked tomato leaves, death checked after 24 hours
compound,measurement,setting,value
O=[N+]([O-])NC1=NCCN1Cc1ccc(Cl)nc1 [Imidacloprid],LC50,[1]; [5],31.8 µg/mL
same,Relative toxicity,[1],1
same,LC50,[2]; read-out: LC50,33.9 µg/mL
same,Relative toxicity,[2],1
same,LC50,[3]; read-out: LC50,39.1 µg/mL
same,Relative toxicity,[3],1
CC1(C)[C@H](C(=O)O[C@H](C#N)c2cccc(Oc3ccccc3)c2)[C@@H]1/C=C(\Cl)C(F)(F)F (racemic) [Lambda-cyhalothrin],LC50,[1]; [5],12 µg/mL
same,Relative toxicity,[1],2.648
same,LC50,[2]; read-out: LC50,17.7 µg/mL
same,Relative toxicity,[2],1.923
"CO[C@H]1CC(OC2[C@H](C)OC(OC3/C(C)=C/C[C@@H]4C[C@@H](C[C@]5(CCC(C)[C@@H](C)O5)O4)OC(=O)[C@@H]4C=C(C)[C@@H](O)[C@H]5OC/C(=C\C=C\C3C)[C@]54O)C[C@@H]2OC)O[C@@H](C)C1O (some centres unmarked) [Tenvermectin A, tenvermectin A]",LC50,Bemisia tabaci imagoes; [6],0.023 µg/mL
same,Relative toxicity,Bemisia tabaci imagoes,110.478
same,LC50,[1]; in vivo,0.296 µg/mL
same,Relative toxicity,[1],107.490
same,LC50,[4]; in vivo,0.0086 µg/mL
same,Relative toxicity,[4],4.77
same,Surviving condition (survival rate %),"zebrafish; 0.5 ppm, 8 h",100%
same,Surviving condition (survival rate %),"zebrafish; 0.5 ppm, 24 h",100%
same,Surviving condition (survival rate %),"zebrafish; 0.5 ppm, 48 h",100%
same,Surviving condition (survival rate %),"zebrafish; 0.5 ppm, 72 h",100%
same,Surviving condition (survival rate %),"zebrafish; 0.5 ppm, 96 h",100%
same,Surviving condition (survival rate %),"zebrafish; 1.0 ppm, 8 h",100%
same,Surviving condition (survival rate %),"zebrafish; 1.0 ppm, 24 h",100%
same,Surviving condition (survival rate %),"zebrafish; 1.0 ppm, 48 h",100%
same,Surviving condition (survival rate %),"zebrafish; 1.0 ppm, 72 h",100%
same,Surviving condition (survival rate %),"zebrafish; 1.0 ppm, 96 h",100%
same,Surviving condition (survival rate %),"zebrafish; 2.0 ppm, 8 h",100%
same,Surviving condition (survival rate %),"zebrafish; 2.0 ppm, 24 h",100%
same,Surviving condition (survival rate %),"zebrafish; 2.0 ppm, 48 h",100%
same,Surviving condition (survival rate %),"zebrafish; 2.0 ppm, 72 h",93%
same,Surviving condition (survival rate %),"zebrafish; 2.0 ppm, 96 h",80%
same,control effect on cabbage Phyllotreta (in words),cabbage Phyllotreta,no control effect
Milbemycin,LC50,Bemisia tabaci imagoes; in vivo,0.210 µg/mL
same,Relative toxicity,Bemisia tabaci imagoes,12.100
same,Surviving condition (survival rate %),"zebrafish; 0.5 ppm, 8 h",0%
same,Surviving condition (survival rate %),"zebrafish; 1.0 ppm, 8 h",0%
same,Surviving condition (survival rate %),"zebrafish; 2.0 ppm, 8 h",0%
Abamectin,LC50,Bemisia tabaci imagoes; [6],0.225 µg/mL
same,Relative toxicity,Bemisia tabaci imagoes,11.293
same,LC50,"[1]; Laodelphax striatellus imagoes, soaked rice seedlings, 72 hours, 26±1 °C",3.101 µg/mL
same,Relative toxicity,[1],10.260
same,LC50,[2],3.062 µg/mL
same,Relative toxicity,[2],11.063
same,LC50,[3],2.648 µg/mL
same,Relative toxicity,[3],14.759
same,LC50,"[4]; Coptotermes formosanus worker ants, 1 μl dropped per termite, 18±1 °C, observed 24 and 48 hours (time of LC50 not stated)",0.041 µg/mL
same,Relative toxicity,[4],1
same,Surviving condition (survival rate %),"zebrafish; 0.5 ppm, 8 h",0%
same,Surviving condition (survival rate %),"zebrafish; 1.0 ppm, 8 h",0%
same,Surviving condition (survival rate %),"zebrafish; 2.0 ppm, 8 h",0%
Ivermectin,Surviving condition (survival rate %),"zebrafish; 0.5 ppm, 8 h",0%
same,Surviving condition (survival rate %),"zebrafish; 1.0 ppm, 8 h",0%
same,Surviving condition (survival rate %),"zebrafish; 2.0 ppm, 8 h",0%
"CC[C@H]1O[C@]2(CCC1C)C[C@@H]1C[C@@H](C/C=C(\C)C(OC3C[C@H](OC)C(OC4C[C@H](OC)C(O)[C@H](C)O4)[C@H](C)O3)C(C)/C=C/C=C3\CO[C@@H]4[C@H](O)C(C)=C[C@@H](C(=O)O1)[C@]34O)O2 (some centres unmarked) [Tenvermectin B, tenvermectin B]",LC50,[4]; in vivo,0.0066 µg/mL
same,Relative toxicity,[4],6.21
same,Surviving condition (survival rate %),"zebrafish; 0.5 ppm, 8 h",100%
same,Surviving condition (survival rate %),"zebrafish; 0.5 ppm, 24 h",70%
same,Surviving condition (survival rate %),"zebrafish; 0.5 ppm, 48 h",50%
same,Surviving condition (survival rate %),"zebrafish; 0.5 ppm, 72 h",0%
same,Surviving condition (survival rate %),"zebrafish; 1.0 ppm, 8 h",53%
same,Surviving condition (survival rate %),"zebrafish; 1.0 ppm, 24 h",0%
same,Surviving condition (survival rate %),"zebrafish; 2.0 ppm, 8 h",10%
same,Surviving condition (survival rate %),"zebrafish; 2.0 ppm, 24 h",0%
same,control effect on cabbage Phyllotreta (in words),cabbage Phyllotreta,no control effect
CC[C@H](C)C1O[C@]2(C=C[C@@H]1C)C[C@@H]1C[C@@H](C/C=C(\C)[C@@H](O[C@H]3C[C@H](OC)[C@@H](O[C@H]4C[C@H](OC)[C@H](NC)[C@H](C)O4)[C@H](C)O3)[C@@H](C)/C=C/C=C3\CO[C@@H]4[C@H](O)C(C)=C[C@@H](C(=O)O1)[C@]34O)O2.O=C(O)c1ccccc1 (some centres unmarked) [Methylamino abamectin benzoate],LC50,[3],0.318 µg/mL
same,Relative toxicity,[3],122.896
same,Surviving condition (survival rate %),"zebrafish; 0.5 ppm, 8 h",0%
same,Surviving condition (survival rate %),"zebrafish; 1.0 ppm, 8 h",0%
same,Surviving condition (survival rate %),"zebrafish; 2.0 ppm, 8 h",0%
C/C(=N\C#N)N(C)Cc1ccc(Cl)nc1 [Acetamiprid],LC50,"Bemisia tabaci imagoes; Bemisia tabaci, in Solanum lycopersicum, 24 h",2.54 µg/mL
same,Relative toxicity,Bemisia tabaci imagoes,1
